According to US20210283220A1, “ANTIBODY MOLECULE-DRUG CONJUGATES AND USES THEREOF” (priority 2017, published 2021):
No end group written: not given here.

How the values were obtained:
E. coli = assay: Minimal inhibitory concentration (MIC) assay, broth microdilution; assay type: cell-based, Escherichia coli; settings: for MIC Eco 25922: E. coli 25922; for MIC Eco 43745: E. coli 43745, in the presence of PBS
P. aeruginosa [1] = assay: as above; assay type: cell-based, Pseudomonas aeruginosa
P. aeruginosa 27853 = assay: MIC / killing activity in the presence of human serum (hsMIC, 50% human serum); assay type: cell-based, Pseudomonas aeruginosa; settings: for 50% hsMIC Pae 27853: P. aeruginosa 27853, 50% human serum; for hsMIC/MIC: ratio
Procedure: In an embodiment, the MIC is determined in the presence of phosphate-buffered saline (PBS). In an embodiment, the MIC or hsMIC is determined on per ADC basis. In an embodiment, the MIC or hsMIC is determined on per payload or antimicrobial peptide basis.

P. aeruginosa [2] = assay: Microbial killing assay (percent killing, CFU); assay type: cell-based, Pseudomonas aeruginosa; settings: for 50% Killing Activity, BAA-2108: MDR P. aeruginosa strain BAA-2108; for 50% Killing Activity, BAA-2110: MDR P. aeruginosa strain BAA-2110; for 50% Killing Activity, BAA-2114: MDR P. aeruginosa strain BAA-2114; for 50% Killing Activity, Pae 27853: P. aeruginosa strain 27853, Table 10
Procedure: Bactericidal assay: Direct killing activity of the ADC can be measured against two well described laboratory strains of P. aeruginosa (PA14 and PA01) and no less than three clinical strains of P. aeruginosa, including MDR and Pan-resistant strains. These assays are conducted in the absence of complement or effector cells. Activity in this assay can provide insight on the inherent killing activity of the ADC.
The microbial killing assay was performed as follows. Bacterial cells were grown aerobically overnight on agar plates at 37° C. Overnight plates were used to seed 30 ml cultures of growth media in 250 ml vented flasks. Cultures were grown aerobically at 37° C., shaking at 150 rpm. Growth was monitored at A600 nM and bacterial cells were harvested at mid-log growth. Ten ml of culture was pelleted at 4000×G for 10 minutes and washed one time with PBS plus 1% BSA before re-suspending in 2 ml PBS+BSA. […] Cultures were diluted to 1×10^4 cells/ml in PBS plus BSA. Test articles were diluted in PBS+1% BSA and 50 μl per concentration tested was loaded into a 96 well polypropylene microtiter plate. Fifty μl of diluted culture was added to all test wells as well as no compound control wells. Plates were shaken and incubated at 37° C., 90 minutes, static. Ten μl from each assay well was plated onto agar plates and incubated at 37° C. overnight. Percent killing was determined by the CFU for test wells compared to the CFU for no compound control wells.

P. aeruginosa ATCC 27853 = assay: Resistance rate determination (standard and micro-dotting protocols); assay type: cell-based, Pseudomonas aeruginosa
Source text: . These rates are considered favorable when compared to published rates in the 10^−5 to 10^−8 range. […]

K. pneumoniae = assay: Minimal inhibitory concentration (MIC) assay, broth microdilution; assay type: cell-based, Klebsiella pneumoniae; settings: K. pneumoniae 700603; in the presence of PBS
Procedure: (§1) Daughter plates were prepared as follows.
(§2) Cultured media were prepared as follows.

S. aureus = assay: as above; assay type: cell-based, Staphylococcus aureus; settings: S. aureus 29213; in the presence of PBS
Procedure: as §1, §2

[3] = P. aeruginosa 27853, in the presence of PBS
[4] = P. aeruginosa 39324, in the presence of PBS

Which results are given for GIGKFLKKAKKFGKAFVKILKK [peptide 109]?
MIC Eco 25922 (E. coli): 4 µg/mL; MIC Pae 27853 (P. aeruginosa [1]; P. aeruginosa 27853): 8 µg/mL

What does the source list for “GGGKRFKKFFKKLKNSVKKRAKKFFKKPRVIGVSIPF [Peptide P296]”?
MIC Eco 43745 (E. coli): 4 µg/mL; MIC Pae 27853 (P. aeruginosa [1]; [3]): 4 µg/mL; MIC Pae 39324 (P. aeruginosa [1]; [4]): 2 µg/mL; 50% hsMIC Pae 27853 (P. aeruginosa 27853): 1 µg/mL; hsMIC/MIC (P. aeruginosa 27853): 0.25

What does the source list for “GGGKFFRKLKKSVKKRAKEFFKKPRVIGVSIPF [Peptide P297]”?
50% Killing Activity, BAA-2108 (P. aeruginosa [2]): 0.28 µg/mL; 50% Killing Activity, BAA-2110 (P. aeruginosa [2]): 0.28 µg/mL; 50% Killing Activity, BAA-2114 (P. aeruginosa [2]): 0.07 µg/mL; 50% Killing Activity, Pae 27853 (P. aeruginosa [2]): 0.04 µg/mL; MIC Eco 43745 (E. coli): 2 µg/mL; MIC Pae 27853 (P. aeruginosa [1]; [3]): 4 µg/mL; MIC Pae 39324 (P. aeruginosa [1]; [4]): 2 µg/mL; MIC (P. aeruginosa ATCC 27853) (P. aeruginosa [1]): 1 to 4 µg/mL; 50% hsMIC Pae 27853 (P. aeruginosa 27853): 8 µg/mL; hsMIC/MIC (P. aeruginosa 27853): 2

Which “MIC Eco 43745” value (E. coli) does the source give for “GGGGLRKRLRKFRNKIKEKLKKIGQKIQGLLPKLA [Peptide P271]” here?
Its value is 4 µg/mL.

For “(MAL)-(EG3)-GIGKFLKKAKKFGKAFVKILKK [peptide 21]”, which “MIC Eco 25922” value (E. coli) is on record?
Its value is 8 µg/mL.

What does the source list for Colistin [reference compound]?
resistance rate, Micro-dotting (P. aeruginosa ATCC 27853; 2x MIC): 1.08E−07; resistance rate, Standard (P. aeruginosa ATCC 27853; 2x MIC): 6.50E−08; resistance rate, Micro-dotting (P. aeruginosa ATCC 27853; 4x MIC): 2.10E−09; resistance rate, Standard (P. aeruginosa ATCC 27853; 4x MIC): 1.60E−09; resistance rate, Micro-dotting (P. aeruginosa ATCC 27853; 8x MIC): <1.1E−09; resistance rate, Standard (P. aeruginosa ATCC 27853; 8x MIC): <1.6E−09

Which results are given for “GGGGLRRLGRKIAHGIKKYGPTILRIIRIAG [Peptide P293]”?
MIC Eco 43745 (E. coli): 4 µg/mL; MIC Pae 27853 (P. aeruginosa [1]; [3]): 8 µg/mL; MIC Pae 39324 (P. aeruginosa [1]; [4]): 2 µg/mL; MIC Kpn 700603 (K. pneumoniae): 4 µg/mL

For “GGGGSGGGGSGIGKFLKKAKKFGKAFVKILKK [peptide 23]”, which “MIC Eco 25922” value (E. coli) is on record?
Its value is 8 µg/mL.

How did the “MIC Eco 25922” value (E. coli) turn out when “GLRKRLRKFRNKIKEKLKKIGQKIQGLLPKLA [Peptide 33]” was run?
The value was 8 µg/mL.

And the “MIC Pae 27853” value (P. aeruginosa [1]; P. aeruginosa 27853)?
The value was 8 µg/mL.

For “GIGKFLKKAKKFGKAFVKILKK-NH2 [Peptide P32]”, which “resistance rate, Micro-dotting” value (P. aeruginosa ATCC 27853; 2x MIC) is on record?
Its value is 1.08E−07.

And the “resistance rate, Micro-dotting” value (P. aeruginosa ATCC 27853; 4x MIC)?
Its value is 9.59E−08.

What about the “resistance rate, Standard” value (P. aeruginosa ATCC 27853; 4x MIC) of the same substance?
Its value is less than 1.6E−09.

And the “growth of resistant colonies, standard protocol” value (P. aeruginosa ATCC 27853; 4×MIC and above)?
Its value is “no growth was observed”.

And the “resistance rate, Micro-dotting” value (P. aeruginosa ATCC 27853; 8x MIC)?
The value was 8.02E−09.

What about the “resistance rate, Standard” value (P. aeruginosa ATCC 27853; 8x MIC) of the same substance?
Its value is less than 1.6E−09.

With “RLGNFFRKAKKKIGRGLKKIGQKIKDFLGNLVPRTES [peptide 128]” as the substance, how does the “MIC Pae 27853” value (P. aeruginosa [1]; P. aeruginosa 27853) read?
Its value is 8 µg/mL.

For Ceftazadime [reference compound], which “MIC Pae 27853” value (P. aeruginosa [1]; [3]) is on record?
The value was 1 µg/mL.

What about the “MIC Pae 39324” value (P. aeruginosa [1]; [4]) of the same substance?
Its value is 1 µg/mL.

What about the “MIC Pae 27853” value (P. aeruginosa [1]; strain Pae27853) of the same substance?
The value was 1 µg/mL.

What about the “MIC Pae 39324” value (P. aeruginosa [1]; strain Pae39324) of the same substance?
The value was 2 µg/mL.

And the “50% hsMIC Pae 27853” value (P. aeruginosa 27853)?
Its value is 1 µg/mL.

And the hsMIC/MIC (P. aeruginosa 27853)?
The hsMIC/MIC was 1.

With “GGGGIGKFLKKAKKFGKAFVKILKK [Peptide P261]” as the substance, how does the “MIC Eco 43745” value (E. coli) read?
The value was 4 µg/mL.

“GGGGRFKRFRKKFKKLFKKLSPVIPLLHLG [Peptide P295]” was tested. Which “50% Killing Activity, BAA-2108” value (P. aeruginosa [2]) did it give?
Its value is 0.6 µg/mL.

What about the “50% Killing Activity, BAA-2110” value (P. aeruginosa [2]) of the same substance?
The value was 0.6 µg/mL.

And the “50% Killing Activity, BAA-2114” value (P. aeruginosa [2])?
Its value is 0.14 µg/mL.

And the “50% Killing Activity, Pae 27853” value (P. aeruginosa [2])?
Its value is 0.3 µg/mL.

And the “MIC Pae 27853” value (P. aeruginosa [1]; [3])?
Its value is 4 µg/mL.

What about the “MIC Pae 39324” value (P. aeruginosa [1]; [4]) of the same substance?
The value was 4 µg/mL.

And the “MIC (P. aeruginosa ATCC 27853)” value (P. aeruginosa [1])?
The value was 1 to 4 µg/mL.

And the “50% hsMIC Pae 27853” value (P. aeruginosa 27853)?
The value was 2 µg/mL.

What about the hsMIC/MIC (P. aeruginosa 27853) of the same substance?
The hsMIC/MIC was 0.5.

How did the “MIC Eco 43745” value (E. coli) turn out when “GGGLLGDFFRKSKEKIGKEFKRIVQRIKDFLRNLVPRTES [Peptide P265]” was run?
Its value is 8 µg/mL.

What about the “50% hsMIC Pae 27853” value (P. aeruginosa 27853) of the same substance?
The value was greater than 128 µg/mL.

What about the hsMIC/MIC (P. aeruginosa 27853) of the same substance?
Its hsMIC/MIC is greater than 4.

And the “MIC Kpn 700603” value (K. pneumoniae)?
The value was greater than 128 µg/mL.

With “GAFGNFLKGVAKKAGLKILSIAQCKLFGTC [peptide 70]” as the substance, how does the “MIC Eco 25922” value (E. coli) read?
Its value is 4 µg/mL.

What about the “MIC Pae 27853” value (P. aeruginosa [1]; P. aeruginosa 27853) of the same substance?
Its value is 8 µg/mL.

Which “MIC Pae 27853” value (P. aeruginosa [1]; [3]) does the source give for “GGG-D-Dab-cyclic(L-Dab-L-Dab-D-Leu-L-Phe-L-Dab-L-Dab-L-Leu) [GGG-Octapeptin]” here?
The value was 2 µg/mL.

And the “MIC Pae 39324” value (P. aeruginosa [1]; [4])?
Its value is 2 µg/mL.

What about the “MIC Sau 29213” value (S. aureus) of the same substance?
Its value is greater than 128 µg/mL.

What about the “50% hsMIC Pae 27853” value (P. aeruginosa 27853) of the same substance?
Its value is 2 µg/mL.

What about the hsMIC/MIC (P. aeruginosa 27853) of the same substance?
Its hsMIC/MIC is 1.

And the “MIC Kpn 700603” value (K. pneumoniae)?
Its value is greater than 128 µg/mL.

How did the “MIC Pae 27853” value (P. aeruginosa [1]; P. aeruginosa 27853) turn out when “GIGKFLKKAKKFGKAFVKILKKGGGGSGGGGS [peptide 24]” was run?
The value was 8 µg/mL.

How did the “MIC Eco 43745” value (E. coli) turn out when “GGGRGLRRLGRKIAHGVKKYGPTVLRIIKKYG [Peptide P294]” was run?
The value was 2 µg/mL.

And the “MIC Kpn 700603” value (K. pneumoniae)?
Its value is 8 µg/mL.
